# Measurements reported in patent US20220133702A1, “CYSTIC FIBROSIS TRANSMEMBRANE CONDUCTANCE REGULATOR MODULATORS FOR TREATING AUTOSOMAL DOMINANT POLYCYSTIC KIDNEY DISEASE” (The Johns Hopkins University, priority 2020, published 2022).
# Assays:
# [1] = test system: cAMP in PN cells; assay: Cyclic AMP enzyme immunoassay in cells; assay type: cell-based, mouse
# Experimental: FIG. 4A, FIG. 4B, FIG. 4C, FIG. 4D, and FIG. 4E show (FIG. 4A-FIG. 4B) cAMP levels are reduced by VX-809. (FIG. 4A) cAMP levels in mouse tissue were reduced by VX-809. The kidney samples (n=6) analyzed were taken from those depicted in FIG. 1. (FIG. 4B) Confluent PN and PH cells were treated with VX-809 (10 μM) or DMSO for 16 hand then treated with forskolin (100 μM) for 30 min before the cells were harvested for the assay. Columns represent means±SEM. Statistical analysis was performed using a two-tailed Student's t-test. Each set of data is from three individual wells; Note that resting cAMP is greater in PN vs PH cells as previously shown (25). Also note that forskolin caused a large increase in cAMP. A smaller increase occurred with IBMX. However, the increase induced by forskolin alone was similar to that by IBMX plus forskolin. […] (FIG. 4C, FIG. 4D, and FIG. 4E) Adenylyl cyclase expression. (FIG. 4C) Western blot showing the expression of adenylyl cyclase (AC) 6 and AC3 in treated and control PN cells. (FIG. 4D-FIG. 4E) Columns represent means±SEM of the AC3 and AC6 expression. The data were analyzed by non-parametric t-test. The experiment was repeated four times. For all graphs, *P<0.05, **P<0.01, and ***P<0.001;
# It has been shown previously in both animal and cell culture models of ADPKD that cells lacking functional PC1 have elevated cAMP levels when compared to normal. To assess the effect of CFTR correctors, cAMP activity was measured in PC1 conditional knockout mouse kidneys and in PN cells that were either left untreated or treated with VX-809. […] Cells were treated with forskolin, which increased cAMP levels drastically (FIG. 4B). It should be noted that VX-809 reduced the forskolin-induced increase in cAMP, indicating a direct action of VX-809 on adenylyl cyclase activity. […] Treating PN cells with forskolin or IBMX (FIG. 4B) increased the cAMP activity by approximately 10-fold.
# Cyclic AMP assay. Confluent cells were treated with VX-809 (10 μM) or DMSO for 16 h before being harvested for assay. Cyclic AMP levels were measured with a direct cAMP Enzyme Immunoassay Kit (Sigma, #CA200) according to the manufacturer's protocol. The results are expressed as pmole/ml. Statistical analysis was performed using a two-tailed Student's t-test.
# [2] = test system: intracellular Ca^2+ in PN cells; assay: Fura-2 Ca2+ imaging assay; assay type: cell-based, mouse; details: 10 μM, 16 h
# Experimental: FIG. 5A, FIG. 5B, FIG. 5C, FIG. 5D, FIG. 5E, and FIG. 5F show intracellular Ca^2+ (F340/F380) levels obtained by ratiometric Fura-2 AM analysis of PN cells treated with VX-809 (10 μM) for 16 h. (FIG. 5A) Representative traces of intracellular Ca^2+ release in response to ATP (100 μM) in PN cells and cells treated with VX-809 (10 μM). (FIG. 5B, FIG. 5C) Graphs summarizing resting calcium levels (FIG. 5B) and the average amplitude of Ca^2+ release (FIG. 5C) in response to ATP. (FIG. 5D) Representative traces of ER Ca^2+ release in response to thapsigargin (4 μM) in PN cells treated with VX-809. (FIG. 5E, FIG. 5F) Resting calcium levels (FIG. 5E) and the average amplitude of Ca^2+ release (FIG. 5F) in response to thapsigargin. Amplitude was measured as the […] of the signal base to peak Δf/f. Significance between the two groups was analyzed using Student's t-test, n=4-5). *P<0.05, ***P<0.001.
# Ca^2+-dependent signal transduction is associated with cyst formation. […] To address the effect of VX-809 on this Ca^2+ release, the cells were treated with thapsigargin, a specific inhibitor of the ER Ca^2+-ATPase which, when applied, allows Ca^2+ to leak out of the ER through independent Ca^2+-permeable pathways. A small effect of VX-809 on resting Ca^2+ was observed.
# Fura-2 Ca^2+ imaging assay. On Day 5 of cell culture, the cells were loaded with the cell-permeant acetoxymethyl (AM) ester of the calcium indicator fura-2 (fura-2/AM) at 37° C. for 90 min. Measurements were made on a Zeiss inverted microscope equipped with a Sutter Lambda 10-2 controller and filter wheel assembly. For ATP stimulation experiments, the cells were exposed to 100 μM ATP diluted in the imaging buffer. A Zeiss FluorArc mercury lamp was used to excite the cells at 340 and 380 nm, and the emission response was measured at 510 nm Cell fluorescence was measured in response to excitation for 1000 ms at 340 nm and 200 ms at 380 nm once every 4 s. Image acquisition, image analysis, and filter wheel control were performed with IPLab software.
# [3] = test system: cAMP; assay: cAMP level in mouse kidney tissue; assay type: in vivo; details: PC1 conditional knockout mouse kidneys, VX-809-treated vs untreated
# Experimental: FIG. 4A, FIG. 4B, FIG. 4C, FIG. 4D, and FIG. 4E show (FIG. 4A-FIG. 4B) cAMP levels are reduced by VX-809. (FIG. 4A) cAMP levels in mouse tissue were reduced by VX-809. The kidney samples (n=6) analyzed were taken from those depicted in FIG. 1. (FIG. 4B) Confluent PN and PH cells were treated with VX-809 (10 μM) or DMSO for 16 hand then treated with forskolin (100 μM) for 30 min before the cells were harvested for the assay. Columns represent means±SEM. Statistical analysis was performed using a two-tailed Student's t-test. Each set of data is from three individual wells; Note that resting cAMP is greater in PN vs PH cells as previously shown (25). Also note that forskolin caused a large increase in cAMP. A smaller increase occurred with IBMX. […] The data were analyzed by non-parametric t-test. […]
# It has been shown previously in both animal and cell culture models of ADPKD that cells lacking functional PC1 have elevated cAMP levels when compared to normal. To assess the effect of CFTR correctors, cAMP activity was measured in PC1 conditional knockout mouse kidneys and in PN cells that were either left untreated or treated with VX-809. […]
# Cyclic AMP assay. […] Cyclic AMP levels were measured with a direct cAMP Enzyme Immunoassay Kit (Sigma, #CA200) according to the manufacturer's protocol. The results are expressed as pmole/ml. […]
# [4] = test system: Hsp27, Hsp70, and Hsp90 in PN cells; assay: Disappearance of Hsps after translation block with cycloheximide; assay type: cell-based, mouse; details: VX-809 10 μM with cycloheximide 25 μM
# Experimental: FIG. 9A, FIG. 9B, FIG. 9C, FIG. 9D, FIG. 9E, FIG. 9F, FIG. 9G, and FIG. 9H show Hsp27, HSp70, and Hsp90 expression in PN cells treated with VX-809 and/or cycloheximide. (A) Pkd1 null (PN) cells were treated with VX-809 (10 μM) and/or with cycloheximide (25 μM) for indicated time points before being harvested for the assay. (FIG. 9A) Western blot showing expression of Hsp27, Hsp70, and Hsp90 in VX-809-(16 h), cycloheximide-treated, or control PN cells. ((FIG. 9B. (FIG. 9C, and (FIG. 9D) Columns represent averages±standard errors of Hsp27, Hsp70, and Hsp90 expression in cells treated with VX-809 and/or cycloheximide. ((FIG. 9E) Western blot showing expression of Hsp27, Hsp70, and Hsp90 in PN cells treated with VX-809+cycloheximide or control PN cells. ((FIG. 9F, FIG. 9G, and FIG. 9H) Columns represent averages±standard errors of Hsp27, Hsp70, and Hsp90 expression in cells treated only with cycloheximide or in control PN cells. Data were analyzed by non-parametric t-test. The experiments were repeated 3-5 times. *P<0.05, **P<0.01;
# To gain more insight into the mechanism whereby VX-809 alters Hsp protein levels, translation was inhibited by using cycloheximide and the disappearance of the three Hsps was monitored. […] Hsp90 was reduced by approximately 25%, and Hsp27 was unchanged.
structure (smiles),measurement,setting,value
"Cc1ccc(NC(=O)C2(c3ccc4c(c3)OC(F)(F)O4)CC2)nc1-c1cccc(C(=O)O)c1 [VX-809, lumacaftor]",resting cAMP levels,"[1]; 10 μM, 16 h, PN cells, no forskolin",significantly decreased
same,forskolin-induced increase in cAMP,"[1]; 10 μM, 16 h, then forskolin 100 μM 30 min",reduced
same,forskolin- or IBMX-induced increases in adenylyl cyclase activity,"[1]; forskolin in combination with IBMX (data bars 5 and 9, FIG. 4B)",did not affect
same,phosphodiesterase activity,[1]; inferred from forskolin/IBMX experiment,does not affect
same,intracellular Ca^2+ movement in response to ATP,[2]; ATP 100 μM,no effect
same,resting Ca^2+,[2]; ATP experiment,small reduction
same,thapsigargin-induced release of Ca^2+ from the ER,[2]; thapsigargin 4 μM,dramatically reduced
same,resting Ca^2+,[2]; thapsigargin experiment,small effect
same,cAMP levels in kidneys,[3],significantly decreased
same,Hsp27 level over the 8-h period,[4],unchanged
same,Hsp90 reduction over the 8-h period,[4],approximately 25%
same,Hsp70 levels over the 8-h period,[4]; vs time 0,approximately half the level observed at time 0
